Data set [1] in a line: logP determination by HPLC (reversed-phase C 18), EEC Directive 79/831 Annex V.A8. It is filed as physicochemical. The conditions noted are these: acidic range, 0.1% aqueous phosphoric acid/acetonitrile; for chromatographic logP: reversed-phase C18 HPLC column, pH 2, reversed-phase C 18, 43° C.; for logP (pH 2): reversed-phase C 18, 43° C. As for the experimental part: The logP values given in the Tables and Preparation Examples above are determined in accordance with EEC Directive 79/831 Annex V.A8 by HPLC (High Performance Liquid Chromatography) using a reversed-phase column (C 18). Temperature: 43° C.
The determination is carried out in the acidic range at pH 2.3 using the-mobile phases 0.1% aqueous phosphoric acid and acetonitrile; linear gradient from 10% acetonitrile to 90% acetonitrile.

For data set [2], the system named is caterpillars of the army worm (Spodoptera frugiperda). The data set is described as follows: Spodoptera frugiperda test (dipped cabbage leaves). The class given is in vivo. Particulars: for Efficacy in % after 7d: 500 ppm active compound, kill after 7 d, cabbage leaves (Brassica oleracea); for kill: active compound concentration of 500 ppm, after 7 days. How it is done: Spodoptera frugiperda Test
(§1) • Solvent: 7 parts by weight of dimethylformamide • Emulsifier: 2 parts by weight of alkylaryl polyglycol ether
(§2) To produce a suitable preparation of active compound, 1 part by weight of active compound is mixed with the stated amount of solvent and emulsifier, and the concentrate is diluted with emulsifier-containing water to the desired concentration.
Cabbage leaves (Brassica oleracea) are treated by being dipped into the preparation of active compound of the desired concentration and are populated with caterpillars of the army worm (Spodoptera frugiperda) while the leaves are still moist.
After the desired period of time, the kill in % is determined. 100% means that all caterpillars have been killed; 0% means that none of the caterpillars have been killed.

For data set [3], the system named is larvae of the mustard beetle (Phaedon cochleariae). Briefly: Phaedon larvae test (dipped cabbage leaves). The class given is in vivo. Particulars: 500 ppm active compound, kill after 7 d, cabbage leaves (Brassica oleracea). How it is done:
as §1, §2
After the desired period of time, the kill in % is determined. 100% means that all beetle larvae have been killed; 0% means that none of the beetle larvae have been killed.

The source of these data is patent publication US7345080B2, “Substituted 4-pyrazolyl pyrazonlines used for pest control” (Bayer CropScience AG, priority 2002, dated 2008).

By chromatographic logP is commonly meant lipophilicity estimated from chromatographic retention. Low values mean lower lipophilicity, high ones higher lipophilicity.

The compound `Cn1nnc(-c2cnn(C3CN(C(=O)Nc4ccc(OC(F)(F)F)cc4)N=C3c3ccc(Cl)cc3)c2)n1` (centres unmarked) [Example 4] gave a chromatographic logP in data set [1] of 3.75. Further, in data set [2], the “Efficacy in % after 7d” value worked out at 100% and the kill is 100%.

Take `CC(C)(C)n1nnc(-c2cnn(C3CN(C(=O)Nc4ccc(OC(F)(F)F)cc4)N=C3c3ccc(Cl)cc3)c2)n1` (centres unmarked) [Example 1, N-(4-trifluoromethoxy)-3-(4-chlorophenyl)-4-[4-(2-tert-butyltetrazol-5-yl)pyrazol-1-yl]-4,5-dihydro-1-pyrazolecarboxanilide]: the “logP (pH 2)” value in data set [1] amounted to 4.63.

Compound `CC(C)(C)n1nnc(-c2cnn(C3CNN=C3c3ccc(Cl)cc3)c2)n1` (centres unmarked) [3-(4-chlorophenyl)-4-[4-(2-tert-butyltetrazol-5-yl)pyrazol-1-yl]4,5-dihydro-1H-pyrazole] came in with a chromatographic logP in data set [1] of 2.91.

`CC(C)(C)n1nnc(-c2cnn(CC(=O)c3ccc(Cl)cc3)c2)n1` [2-[4-(2-tert-butyltetrazol-5-yl)pyrazol-1-yl]-4′-chloroacetophenone]: the chromatographic logP in data set [1] came out at 2.96.

Compound `Cn1nnc(-c2cnn(C3CN(C(=O)N(CC#N)c4ccc(OC(F)(F)F)cc4)N=C3c3ccc(Cl)cc3)c2)n1` (centres unmarked) [Example 6] came in with a chromatographic logP in data set [1] of 3.51. The “Efficacy in % after 7d” value in data set [2] and in data set [3] was 100% throughout.

With `CC(C)(C)n1nnc(-c2cnn(C3CN(C(=O)N(CC#N)c4ccc(OC(F)(F)F)cc4)N=C3c3ccc(Cl)cc3)c2)n1` (centres unmarked) [Example 2, N-cyanomethyl-N(4-trifluoromethoxy)-3-(4-chlorophenyl)-4-[4-(2-tert-butyltetrazol-5-yl)pyrazol-1-yl]-4,5-dihydro-1-pyrazolecarboxanilide], the “logP (pH 2)” value in data set [1] is reported as 4.40. The “Efficacy in % after 7d” value in data set [2] and in data set [3] was 100% throughout. The compound also showed a kill in data set [2] of 100%.

With `O=C(Cn1cc(-c2nn[nH]n2)cn1)c1ccc(Cl)cc1` [2-[4-(tetrazol-5-yl)pyrazol-1-yl]-4′-chloroacetophenone], in data set [1], the chromatographic logP is 1.6.
